The melting point is the temperature, or range, at which the solid turns liquid.

Molecules are shown by their SMILES.

In the case of `N#Cc1cnc(NS(=O)(=O)c2cccc(Cl)c2Cl)c(OCc2cccnc2)n1`, the melting point lay in the range of 222 to 224 °C.
`COCc1cccc2c1ccn2S(=O)(=O)c1ccc(C)cc1` had a melting point of 85.5 to 89 °C.
Compound `O=C(O)[C@@H]1CCCC[C@H]1C(=O)CCS` (relative stereo) registered a melting point of 71 to 74 °C.
Compound `Cc1nc2c(Br)cnn2c(Cl)c1CCCl` came in with a melting point of 128 to 130 °C.
With `COC(=O)CCc1cccc(-n2c(C)nn(-c3ccc(C#N)cc3)c2=O)c1` the figure was 134 to 137 °C; with `O=C(NCCO)/C(=C/c1ccc(OC(F)F)cc1)NC(=O)c1ccc(OCCC2CC2)cc1`, 153 to 155 °C; with `O=C(CCCCCOc1ccccc1OCc1ccccc1)C(F)(F)F`, 31 to 32 °C.
Under `O=C(NCC1CC1)c1c(NC(=O)c2cc(C(F)(F)F)nn2-c2ncccc2Cl)ccc2cn[nH]c12` stands 240 to 242 °C; under `CCCCCC1(C=Cc2ccc(C(=O)O)cc2)CC2=C(C1)C(C)(C)CCC2(C)C`, 121 to 123 °C; under `CCNc1cc(C(C)=NO)ccn1`, 155 to 156 °C.
Compound `CCOC(=O)C1=C(C)NC(c2ncsc2Cl)=NC1c1ccc(F)cc1Cl` (centres undefined) registered a melting point of 149 to 152 °C.
Under `c1nnc2c3c(c(NCCN4CCCC4)nn12)CCCC3` stands 160 to 162 °C.
In turn, `COCCOCC(=O)N(c1c(C)c(C)cc2ccccc12)C1CCOC1=O` (centres undefined) came in with a melting point of 142 to 146 °C.
Under `COc1ccc(C(=O)c2c(Cc3ccccc3)sc3cc(OC)ccc23)cc1` stands 110 to 112 °C; under `CCc1c(CO)oc2ccc(Br)cc12`, 93 to 94 °C.
With `CN1C(=O)CC[C@]2(C)c3ccc(-c4ccc5c(c4)CCC5O)cc3CC[C@@H]12` (some centres undefined) the figure was 185 to 190 °C.
Under `FC(F)(c1ccccc1)C(F)(F)c1ccc(Br)cc1` stands 80 to 82 °C.
Compound `O=S(=O)(Nc1cccc(OCCc2ccc3ccccc3c2)c1)c1cccc2ccccc12` registered a melting point of 165 to 167 °C.
For the compound `COc1cc(O)c(C(=O)c2ccccc2)cc1S(=O)(=O)Cl`, the melting point lay in the range of 165 to 172 °C.
As to `Nc1c(Cl)cc(C(=O)OC2CCN(CCCC(=O)c3ccc4[nH]c(=O)[nH]c4c3)CC2)c2c1CCO2`, the melting point is 273 °C.
With `CC(C)(C#N)Cc1ccccc1CC(C)(C)C#N` the figure was 76 to 80 °C; with `CC(C)(C)OC(=O)C(C1NC(C(=O)OCc2ccccc2)C2(CCN(c3ccccc3)CC2)S1)N1C(=O)c2ccccc2C1=O` (centres undefined), 184 to 185 °C; with `CNC(=C[N+](=O)[O-])NCCSCc1cc(CN(C)C)ccn1`, 113 to 115 °C.
With `CCCc1c(OCCCS(=O)(=O)c2nc3ccc(C(=O)O)cc3[nH]2)ccc(C(C)=O)c1O` the figure was 212 to 215 °C.
Under `CC(C)[C@H]1C(=O)OCN1C(=O)OC(C)(C)C` stands 43 to 45 °C; under `CC(C)C(c1ccc(N)cc1)n1cncn1` (centres undefined), 118 °C.
Regarding `CCC1(CC(=O)OC2OC(=O)c3ccccc32)OCCc2c1[nH]c1cc(OC(F)(F)F)ccc21` (centres undefined), the melting point was 150 °C.
Under `COc1ccc(F)cc1C1OC(=O)CC1C(=O)O` (centres undefined) stands 41 to 43 °C; under `NOCc1ccn(C(c2ccccc2)(c2ccccc2)c2ccccc2)n1`, 105 to 110 °C; under `CCOC(=O)Cc1ccc2c(c1)CC(CC(=O)O)C2` (centres undefined), 56 to 57 °C.
Under `COc1cc2ncnc(Nc3cccc(Br)c3)c2cc1OCC1CO1` (centres undefined) stands 230 to 245 °C; under `Cc1cc(Nc2cccc(O)c2)c2c(cnn2C)n1`, 264 to 265 °C.
With `COc1cc(Nc2nccc(-c3ccc([N+](=O)[O-])s3)n2)cc(OC)c1OC` the figure was 182 to 183 °C; with `O=C(NCCn1cncn1)c1sc2ccccc2c1Cl`, 151 to 152 °C; with `Cc1cc(C(=O)c2ccc(O)cc2)ccc1[N+](=O)[O-]`, 146 to 148 °C.
As to `CC(Oc1ccc(OCc2ccccc2)cc1)C(=O)N(C)C#N` (centres undefined), the melting point is 56 to 58 °C.
With `O=C1CCCc2nc3cc(Cl)ccc3c(NCc3ccc(F)cc3)c21`, the melting point lay in the range of 156 to 158 °C.
Under `CC(=O)OC1CCC2C3CCC4=CC(=O)CCC4(C)C3(Br)C(F)CC12C` (centres undefined) stands 172 to 174 °C; under `CN1C(=O)CC[C@]2(C)c3ccc(-c4c(F)c(F)c(Cl)c(F)c4F)cc3CC[C@@H]12`, 150 to 151 °C; under `N#Cc1ccc(-c2ccc(OCCCCCC(=O)NO)cc2)cc1`, 129 °C.
On to `CSc1ccc(C2=C(c3ccc(F)cc3)C(=O)OC2)c(F)c1`, for which the melting point lay in the range of 118 to 122 °C.
With `COc1cccc2c(=O)c3c(O)cc(OCC4CS4)cc3oc12` (centres undefined) the figure was 187 °C; with `C=CS(=O)(=O)CCC(F)(F)C(F)(F)C(F)(F)C(F)(F)C(F)(F)C(F)(F)C(F)(F)C(F)(F)F`, 96 to 97 °C.
Under `c1ccc(CN(Cc2ccccc2)C2CCC3(CC2)OCCO3)cc1` stands > 95 °C; under `COc1ccc(NC=C(C#N)C(=O)Nc2cc(OC)c(Cl)cc2Cl)cc1F`, 275 to 276 °C; under `COC1(c2cccc(S(=O)(=O)c3ccc4c(ccc(=O)n4C)c3)c2)CCOCC1`, 204 to 207 °C.
With `CCOC(=O)Nc1ccc2ccccc2c1` the figure was 69 to 70.5 °C; with `Cn1nnnc1CC(=O)c1ccc(Br)cc1N`, 159 to 160 °C; with `C=CCOc1ccc(OC(C(=O)C(C)(C)C)n2cncn2)cc1` (centres undefined), 66 °C.
Compound `CCNc1nc(C)c(C(=O)c2ccc(Cl)c([N+](=O)[O-])c2)s1` registered a melting point of 195 °C.
Under `CN(C)CCNNc1ccc(CO)c2oc3ccc(O)cc3c(=O)c12` stands 122 to 123 °C.
With `Cc1cc(O)c(O)cc1S(=O)(=O)c1ccc(F)cc1` the figure was 175 to 177 °C.
`O=C(c1ccc(C2=CCCc3ccccc32)cc1Cl)N1Cc2cccn2Cc2ccccc21` gave a melting point of 174 to 176 °C.
Under `O=C(O)Cn1c(-c2cccc(F)c2)nc2cccnc21` stands 243 to 245 °C.
With `CCCc1nc2ccnn2c(Cl)c1Cc1ccc(-c2ccccc2C#N)cc1` the figure was 137 °C; with `Nc1cccc(C=C2c3ccccc3CCc3ccccc32)c1`, 204 °C.
With `COC(=O)c1ccccc1-c1cc(F)cc(OCc2ccc3c(-c4ccoc4)cc(C#N)nc3c2)c1` the figure was 152 to 154 °C.
The compound `CCCCOC1OC(CO)C(O)C(O)C1(O)N(CC)C(=O)N(CCCl)N=O` (centres undefined) showed a melting point of 87 to 89 °C.
Regarding `O=[N+]([O-])C=C1CN=C(c2ccccc2)c2sccc2N1`, the melting point was 160 to 163 °C.
With `CCOC(=O)Cn1c(=O)c(=O)[nH]c2cc(C(F)(F)F)ccc21` the figure was 250 to 251 °C; with `COCC1CN(c2ccc3ccc(OC)cc3c2)C(=O)O1` (centres undefined), 95.5 to 96.5 °C.
`C[C@@H](S[C@H]1CO[C@H](c2ccc(C(=O)Nc3nc4ccccc4s3)cc2)OC1)[C@](O)(Cn1cncn1)c1ccc(F)cc1F`: the melting point is 107 °C.
The compound `CCOC(=O)n1c(SC(F)(F)C(F)F)nc(-c2ccc(F)cc2)c1-c1ccc(F)cc1` gave a melting point of 137 to 139 °C.
For the compound `CC(=O)SC[C@H]1CCCCCC[C@H](C(=O)N2C[C@H](O)C[C@H]2C(=O)OCc2ccccc2)NC1=O`, the melting point turned out to be 145 °C.
With `O=[N+]([O-])c1ccc(O)c(C=NCCC(F)=C(F)F)c1` the figure was 96 to 98 °C.
As for `O=C1CCCCN1CCCC(=O)N1CCC(C2c3ncc(Br)cc3CCc3cc(Cl)cc(Br)c32)CC1` (single isomer, unassigned; (+)), the melting point lay in the range of 101 to 102 °C.
`CCC(C)(COc1nn2ncnc2cc1C)CS(N)(=O)=O` (centres undefined) registered a melting point of 189 to 190 °C.
With `Cc1cc(C(O)(C(F)(F)F)C(F)(F)F)cc(C)c1OCCN` the figure was 167 to 169 °C.
Under `CC(Oc1ccc([N+](=O)[O-])cc1[N+](=O)[O-])C(=O)O` (centres undefined) stands 167 to 171 °C; under `CSCOC1CCC2C3CCC4=CC(=O)C=CC4(C)C3(F)C(OC(C)=O)CC12C` (centres undefined), 142 to 143 °C.
With `Oc1ccc(-c2nn(-c3cc(F)ccc3F)c3cc(O)ccc23)c(O)c1` the figure was 88 to 91 °C; with `O=Cc1c(Cl)c(Br)c(Br)c(Br)c1Br`, 268 to 269 °C; with `O=C(O)C1CC(Cl)=C(c2ccccc2)CC1C(=O)O` (centres undefined), 82 to 90 °C.
As for `COC(=O)N[C@@H](Cc1ccccc1)C(=O)CCl`, the melting point is 121 to 122 °C.
In the case of `CCCNC(=O)NCC1CCCCC1`, the melting point lay in the range of 60 to 61 °C.
`OCC1CN(Cc2ccccc2)CCN1Cc1ccccc1` (centres undefined) showed a melting point of 77 °C.
As to `Cc1c(C#N)c(N)nc(Cl)c1C#N`, the melting point worked out at 210 °C.
Consider `O=C1CNc2cc(Cl)ccc2N1`, for which the melting point was 171 to 174 °C.
With `CC(Cc1ccc(Cl)c(Cl)c1)C(=O)Nc1cccc2ncccc12` (centres undefined) the figure was 168 to 170 °C.
Under `CC1COc2cc(Oc3ccc(NC(=O)N(C)C)cn3)ccc21` (centres undefined) stands 153 to 154 °C; under `Cc1ccc2c(-c3ccccc3)c([N+](=O)[O-])oc2c1`, 142 to 144 °C; under `CN(C)Cc1ccc(CSCCNC2=NS(=O)(=O)N=C2N)o1`, 156 to 158 °C.
With `COc1ccc(-c2c(Cl)c(CN3CCCC3)nc3sc4c(c23)CCN(Cc2ccccc2)C4)cc1OC` the figure was 157 to 158 °C; with `COc1ccc(C2CCC(=O)N2c2ccc(OC)cc2)cc1` (centres undefined), 91.5 to 92.5 °C; with `O=C1c2c(ccc(F)c2Cl)-n2cnc(-c3cccc(Cl)c3)c2[C@@H]2CCCN12`, 238 to 239 °C.
Turning to `O=C(NCO)C(Nc1ccccc1[N+](=O)[O-])c1c(Cl)cccc1Cl` (centres undefined), the melting point worked out at 175 °C.
The compound `NS(=O)(=O)c1cc2ccncc2o1` showed a melting point of 199 to 201 °C.
For the compound `COc1cn(-c2ccc(OCc3ccccc3)cc2F)nc(C(C)=O)c1=O`, the melting point lay within 101 to 103 °C.
Under `CN1Cc2c(-c3noc(CN4CCCCC4)n3)ncn2-c2ccc(F)cc2C1=O` stands 182 to 184 °C.

Source of the values: a melting point compilation (Tetko et al.; mined from patent text by program, amines drawn as free bases though some values may be those of a salt).
